According to PMC5959751 (Biochemical pharmacology, 2018):
Where “and” joins values, the source holds several entries; their conditions need not be identical. Equal entries are not always repeated. Where two headings read alike, the source gives them in different places.

Legend:
hA3 receptor [1] = target: T1, hA3 receptor (Homo sapiens, UniProt P0DMS8); experiment: Radioligand equilibrium displacement assay with [3H]PSB-11 on CHOhA3 membranes; type: binding; conditions: no GTP; for pKi / Ki: 10 °C, 240 min, [3H]PSB-11, CHO cell membranes; for pKi: ± SEM
T1 sequence (P0DMS8 1-318): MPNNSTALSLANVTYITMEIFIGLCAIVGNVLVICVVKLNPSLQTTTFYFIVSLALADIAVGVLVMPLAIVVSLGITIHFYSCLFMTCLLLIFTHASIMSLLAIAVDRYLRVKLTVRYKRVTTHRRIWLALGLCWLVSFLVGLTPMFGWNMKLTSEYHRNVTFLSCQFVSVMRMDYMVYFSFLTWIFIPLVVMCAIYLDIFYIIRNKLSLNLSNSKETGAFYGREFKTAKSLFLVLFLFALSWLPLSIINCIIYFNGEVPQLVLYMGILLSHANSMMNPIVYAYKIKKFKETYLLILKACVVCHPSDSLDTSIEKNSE

hA3 receptor [2] = target: T1, hA3 receptor; experiment: Competition association assay with [3H]PSB-11; type: binding; conditions: no GTP; for koff / kon: 10 °C, ± SEM; for RT (residence time): RT = 1/(60*koff); for mean pKD (kinetic): from KD = koff/kon; for Kd: read-out: Kinetic KD, KD = koff/kon
pain models = conditions: five-day period; daily injection or implanted mini-pump; rat; cited from earlier work
hA3 receptor [3] = target: T1, hA3 receptor; experiment: Dual-point competition association assay with [3H]PSB-11; type: binding; conditions: no GTP; t1 20 min, t2 240 min; agonist at IC50; 10 °C

Row | Structure (SMILES) | pKi (hA3 receptor [1]) | Ki (hA3 receptor [1]; read-out: mean Ki) [nM] | koff (hA3 receptor [2]) | kon (hA3 receptor [2]) | RT (residence time) (hA3 receptor [2]) [min] | mean pKD (kinetic) (hA3 receptor [2]) | Kd (hA3 receptor [2]) [nM] | also measured
1 | CNC(=O)[C@@]12C[C@@H]1[C@@H](n1cnc3c(NC)cc(C#Cc4ccc(Cl)s4)nc31)[C@H](O)[C@@H]2O [MRS7140] | 8.3 ± 0.08 | 5.2 | (8.5 ± 0.3) × 10^-5 s^-1 | (3.2 ± 1.2) × 10^5 M^-1 s^-1 | 196 ± 8 | 9.6 | 0.27 ± 0.1 | –
2 | OC[C@H]1O[C@@H](n2cnc3c(Nc4ccc(I)cc4)ncnc32)[C@H](O)[C@@H]1O [LUF5506] | 7.6 ± 0.08 | 29 | – | – | – | – | – | –
3 | CNC(=O)[C@@]12C[C@@H]1[C@@H](n1cnc3c(NCc4cccc(Cl)c4)nc(C#Cc4ccc(F)c(F)c4)nc31)[C@H](O)[C@@H]2O [MRS5698] | – | – | – | – | – | – | – | efficacy on prolonged exposure in in vivo pain models (pain models): maintained full efficacy
4 | CCCNc1nc(C#Cc2ccc(Cl)s2)nc2c1ncn2[C@H]1[C@H](O)[C@H](O)[C@]2(C(=O)NC)C[C@H]12 [MRS7154] | 8.7 ± 0.06 | 2.2 | (6.2 ± 1.2) × 10^-5 s^-1 | (4.0 ± 0.7) × 10^5 M^-1 s^-1 | 270 ± 51 | 9.8 | 0.15 ± 0.04 | –
5 | CNC(=O)[C@H]1O[C@@H](n2cnc3c(N)ncnc32)[C@H](O)[C@@H]1O [MECA, 5′-N-methylcarboxamidoadenosine, reference compound] | 7.4 ± 0.04 | 42 | – | – | – | – | – | KRI (Kinetic Rate Index) (hA3 receptor [3]): 1.24 and 1.24 ± 0.09
6 | OC[C@H]1O[C@@H](n2cnc3c(Nc4cccc(Cl)c4)ncnc32)[C@H](O)[C@@H]1O [LUF5501] | 7.5 ± 0.02 | 31 | (1.6 ± 0.2) × 10^-3 s^-1 | (1.7 ± 0.2) × 10^5 M^-1 s^-1 | 10 ± 1.3 | 8.0 | 9.2 ± 1.4 | difference between kinetic pKD and pKi (hA3 receptor [2]; pKD higher than pKi): 0.5 log-unit
7 | CNC(=O)[C@@]12C[C@@H]1[C@@H](n1cnc3c(NCc4cccc(Cl)c4)nc(C#Cc4ccc(-c5ccccc5)cc4)nc31)[C@H](O)[C@@H]2O [MRS5679] | – | – | very slow | – | – | – | – | Ki (hA3 receptor [1]; mean Ki): 82 nM
8 | CNC(=O)[C@H]1O[C@@H](n2cnc3c(NCc4cccc(I)c4)ncnc32)[C@H](O)[C@@H]1O [IB-MECA, 1-deoxy-1-[6-[((3-Iodophenyl)methyl)amino]-9H-purin-9-yl]-N-methyl-β-D-ribofuranuronamide, reference compound] | – | – | – | – | – | – | – | Hill Slope (hA3 receptor [1]; displacement curves): -0.94 ± 0.05 ^ns
9 | CNC(=O)C12CC1C(n1cnc3c(NC)nc(C#Cc4ccc(-c5ccccc5)cc4)nc31)C(O)C2O (stereo not shown) [MRS5667] | 8.3 ± 0.05 | 4.6 | (1.1 ± 0.3) × 10^-5 s^-1 | (1.8 ± 0.3) × 10^5 M^-1 s^-1 | 1563 ± 464 | 10.2 | 0.058 ± 0.02 | –
10 | CNC(=O)C12CC1C(n1cnc3c(NCc4cccc(Cl)c4)nc(C#Cc4ccccc4)nc31)C(O)C2O (stereo not shown) [MRS5655] | 8.5 ± 0.09 | 3.6 | (1.8 ± 0.3) × 10^-5 s^-1 | (4.0 ± 0.8) × 10^5 M^-1 s^-1 | 909 ± 165 | 10.3 | 0.046 ± 0.013 | –
11 | CNC(=O)C12CC1C(n1cnc3c(N(C)C)nc(C#Cc4ccc(Cl)s4)nc31)C(O)C2O (stereo not shown) [MRS7158] | – | 618 | – | – | – | – | – | –
12 | OC[C@H]1O[C@@H](n2cnc3c(Nc4ccc(Cl)cc4)ncnc32)[C@H](O)[C@@H]1O [LUF5500] | 7.3 ± 0.03 | 51 | – | – | – | – | – | KRI (Kinetic Rate Index) (hA3 receptor [3]): 0.98 (0.95; 1.01)
